PMC11672400, “Synthesis, Spectroscopic Characterization, Structural Analysis, and Evaluation of Anti-Tumor, Antimicrobial, and Antibiofilm Activities of Halogenoaminopyrazoles Derivatives” (Antibiotics, 2024)
Values after ≈ are worked out from the molar mass of the structure shown. Read-outs that look alike come from different tables or passages of the source.

Legend:
[1] = tested on: Staphylococcus aureus ATCC25923; assay: MIC by serial microdilution in liquid medium; type: cell-based; conditions: 24 h, 37 °C
Protocol: (§1) The minimum inhibitory concentrations (MIC) were determined by the serial microdilution method in a liquid medium (Tryptone Soy Broth), on 96-well plates. Serial binary dilutions of the compound stock solution (10 mg/mL in DMSO) were carried out in 90 µL of culture medium and 10 µL of 10^6 CFU/mL (Colony Forming Units) microbial suspension. Each test included a positive control (wells with culture medium and microbial suspension) and a negative control for medium sterility. After incubation at 37 °C for 24 h the plates were visually examined, and optical density was measured at 620 nm. […] The MIC value (µg/mL) for the chemical compound was determined by the concentration in the final well without bacterial growth. All experiments were performed in triplicate.

[2] = tested on: Escherichia coli ATCC25922; assay: MIC by serial microdilution in liquid medium; type: cell-based; conditions: 24 h, 37 °C
Protocol: as §1

[3] = tested on: Pseudomonas aeruginosa ATCC27853; assay: MIC by serial microdilution in liquid medium; type: cell-based; conditions: 24 h, 37 °C
Protocol: as §1

[4] = tested on: Enterococcus faecalis ATCC29212; assay: MIC by serial microdilution in liquid medium; type: cell-based; conditions: 24 h, 37 °C
Protocol: as §1

[5] = tested on: Staphylococcus aureus ATCC25923; assay: Antibiofilm assay (crystal violet), MBIC; type: cell-based; conditions: 24 h, 37 °C
Protocol: (§2) Microorganisms were grown in 96-well plates filled with nutrient broth along with test substances, followed by incubation at 37 °C for 24 h. Plates were cleaned and rinsed thrice using SPW solution (sterile physiological water). After that, the attached cells were treated with 110 μL of methanol for 5 min, and then the methanol was removed by turning it upside down. […] Once stained, the solution was removed, and the plates were washed with running tap water. […] The antimicrobial/antibiofilm activity of the compounds was evaluated against two antibiotics, commercial formulations of metronidazole and nitrofurantoin.

[6] = tested on: Pseudomonas aeruginosa ATCC27853; assay: Antibiofilm assay (crystal violet), MBIC; type: cell-based; conditions: 37 °C
Protocol: as §2

[7] = MTT cell viability / cytotoxicity on normal fibroblasts; type: cell-based, mouse; conditions: mouse, NCTC clone 929 (L929) mouse fibroblast cells
Excerpt: (§3) Merck chemicals were utilized.
(§4) Untreated cells were used as control, considered 100% viable cells.

[8] = tested on: NCTC (clone 929) mouse fibroblast cells; assay: as above; type: cell-based; conditions: Mus musculus, NCTC clone 929; NCTC normal fibroblasts, MTT, 48 h
Excerpt: as §3, §4

[9] = tested on: Staphylococcus aureus ATCC25923; assay: Qualitative evaluation of antimicrobial activity (inhibition zone, spot on agar); type: cell-based; design: key: (+) inhibited bacterial growth; (-) did not inhibit bacterial growth; conditions: 0.06 g/2 mL DMSO, 5 µL spot
Protocol: (§5) For testing the antimicrobial/antibiofilm activity, the concentration of the studied compounds was identical to 0.06 g/2 mL DMSO. 0.5 Standard McFarland suspension was used, which was inoculated onto Mueller Hinton agar plates, (Remel, Lenexa, KS, USA), 5 µL of each compound was spotted and incubated overnight at 37 °C. Antimicrobial activity was observed as zones of inhibition formed around the spot.

[10] = tested on: Escherichia coli ATCC25922; assay: as above; type: cell-based; design: key: (+) inhibited bacterial growth; (-) did not inhibit bacterial growth; conditions: 0.06 g/2 mL DMSO, 5 µL spot
Protocol: as §5

[11] = tested on: Pseudomonas aeruginosa ATCC27853; assay: as above; type: cell-based; design: key: (+) inhibited bacterial growth; (-) did not inhibit bacterial growth; conditions: 0.06 g/2 mL DMSO, 5 µL spot
Protocol: as §5

[12] = tested on: Enterococcus faecalis ATCC29212; assay: as above; type: cell-based; design: key: (+) inhibited bacterial growth; (-) did not inhibit bacterial growth; conditions: 0.06 g/2 mL DMSO, 5 µL spot
Protocol: as §5

[13] = tested on: HEp-2 epithelial tumor cells; assay: MTT cell viability / anti-tumor activity; conditions: Homo sapiens; for viability at 3.1 µg/mL / viability at 6.25 µg/mL / viability at 12.5 µg/mL / viability at 25 µg/mL / viability at 50 µg/mL: read-out: Cell viability on Hep2 cells (%)

SMILES: Cc1nn(CNc2ccc(Cl)cc2)c(C)c1[N+](=O)[O-] [4b, N-[(3,5-dimetyl-4-nitro-1H-pyrazol-1-yl)-methyl]-4-chloroaniline]
- Minimum inhibitory concentration, Staphylococcus aureus ATCC25923 [1]: 460 ± 0.02 mg/L (≈ 1640 µM)
- MIC ([1]; Staphylococcus aureus, ATCC25923, read-out: Minimum inhibitory concentration, Staphylococcus aureus ATCC25923): 460 mg/L (≈ 1640 µM)
- Minimum inhibitory concentration, Escherichia coli ATCC25922 [2]: 460 ± 0.05 mg/L (≈ 1640 µM)
- MIC ([2]; Escherichia coli, ATCC25922, read-out: Minimum inhibitory concentration, Escherichia coli ATCC25922): 460 mg/L (≈ 1640 µM)
- Minimum inhibitory concentration, Pseudomonas aeruginosa ATCC27853 [3]: 460 ± 0.01 mg/L (≈ 1640 µM)
- MIC ([3]; Pseudomonas aeruginosa, ATCC27853, read-out: Minimum inhibitory concentration, Pseudomonas aeruginosa ATCC27853): 460 mg/L (≈ 1640 µM)
- Minimum inhibitory concentration, Enterococcus faecalis ATCC29212 [4]: 460 ± 0.02 mg/L (≈ 1640 µM)
- MIC ([4]; Enterococcus faecalis, ATCC29212, read-out: Minimum inhibitory concentration, Enterococcus faecalis ATCC29212): 460 mg/L (≈ 1640 µM)
- Minimum biofilm inhibition concentration (MBIC), Staphylococcus aureus ATCC25923 [5]: 460 ± 0.01 µg/mL
- minimal effective concentration ([5]; Staphylococcus aureus, ATCC25923, read-out: Minimum biofilm inhibition concentration (MBIC), Staphylococcus aureus ATCC25923): 460 µg/mL
- Minimum biofilm inhibition concentration (MBIC), Pseudomonas aeruginosa ATCC27853 ([6]; 24 h): 460 ± 0.02 µg/mL
- minimal effective concentration ([6]; Pseudomonas aeruginosa, ATCC27853, 24 h, read-out: Minimum biofilm inhibition concentration (MBIC), Pseudomonas aeruginosa ATCC27853): 460 µg/mL
- viability at 24 h, 3.1 µg/mL ([7]; 3.1 µg/mL, 24h): 100 ± 1.63%
- viability at 48 h, 3.1 µg/mL ([7]; 3.1 µg/mL, 48h): 95.08 ± 0.82%
- viability at 24 h, 6.25 µg/mL ([7]; 6.25 µg/mL, 24h): 101 ± 3.31%
- viability at 48 h, 6.25 µg/mL ([7]; 6.25 µg/mL, 48h): 93 ± 1.35%
- viability at 24 h, 12.5 µg/mL ([7]; 12.5 µg/mL, 24h): 98.6 ± 2.62%
- viability at 48 h, 12.5 µg/mL ([7]; 12.5 µg/mL, 48h): 89.7 ± 3.15%
- viability at 24 h, 25 µg/mL ([7]; 25 µg/mL, 24h): 96.3 ± 2.22%
- viability at 48 h, 25 µg/mL ([7]; 25 µg/mL, 48h): 61.9 ± 1.38%
- viability at 24 h, 50 µg/mL ([7]; 50 µg/mL, 24h): 64.9 ± 0.94%
- viability at 48 h, 50 µg/mL ([7]; 50 µg/mL, 48h): 31.6 ± 1.27%
- IC50 [8]: 36.1 ± 1.23 mg/L (≈ 129 µM)
- Qualitative antimicrobial activity, Staphylococcus aureus ATCC25923 [9]: +
- Qualitative antimicrobial activity, Escherichia coli ATCC25922 [10]: +
- Qualitative antimicrobial activity, Pseudomonas aeruginosa ATCC27853 [11]: +
- Qualitative antimicrobial activity, Enterococcus faecalis ATCC29212 [12]: +
- viability at 3.1 µg/mL ([13]; HEp-2, 24 h): 116 ± 2.48%
- viability at 6.25 µg/mL ([13]; HEp-2, 24 h): 105 ± 2.91%
- viability at 12.5 µg/mL ([13]; HEp-2, 24 h): 100 ± 2.49%
- viability at 25 µg/mL ([13]; HEp-2, 24 h): 88.8 ± 1.65%
- viability at 50 µg/mL ([13]; HEp-2, 24 h): 65.6 ± 2.78%
- viability at 3.1 µg/mL ([13]; HEp-2, 48 h): 112.6 ± 1.03%
- viability at 6.25 µg/mL ([13]; HEp-2, 48 h): 104 ± 1.08%
- viability at 12.5 µg/mL ([13]; HEp-2, 48 h): 98 ± 1.42%
- viability at 25 µg/mL ([13]; HEp-2, 48 h): 79.5 ± 1.49%
- viability at 50 µg/mL ([13]; HEp-2, 48 h): 46.8 ± 3.35%
- IC50 ([13]; HEp-2, 48 h, read-out: IC50 µg/mL on HEp-2 Cells 48 h, HEp-2 epithelial tumor cells, MTT, 48 h): 47.3 ± 3.38 µg/mL (≈ 169 µM)
- melting point: 99 to 100 °C
